The term IC50 denotes the concentration at which inhibition is half-maximal.

The structures appear in SMILES notation.

One experiment addresses microsomal 11β-HSD1 (Homo sapiens, UniProt P28845). Kind of experiment: Inhibition of microsomal 11β-HSD1, Scintillation Proximity Assay. The experiment is classed as biochemical. The settings on record: microsomal enzyme, same manner as purified enzyme assay. The protocol: (§1) The inhibition of purified 11β-HSD1 by compounds of Formula I was measured as follows using a Scintillation Proximity Assay. All reactions were carried out at room temperature in 96 well flexible Microbeta reaction plates. The assay begins by adding 1 microliter of a 0.1 mM solution of a compound of Formula I in DMSO previously diluted in half-log increments (8 points) starting at 1 micromolar final concentration. To this dot was added 50 microliters of substrate solution (50 mM HEPES, pH 7.4, 100 mM KCl, 5 mM NaCl, 2 mM MgCl2 containing […] of ^3H cortisone, 1 mM NADPH). After a 10 minute incubation, 50 microliters of enzyme solution containing 20 nM recombinant 11β-HSD1 (expressed in E. coli, and affinity purified) was added, The reaction was incubated for 90 minutes, and stopped by adding 50 microliters of SPA bead mix (18-β-glycyrrhetinic acid, 10 micromolar final, 5 mg/ml protein A coated YSi SPA beads, and 1-microgram/ml alpha-cortisol antibody (East Coast Biologics). The plate shaken for 120 minutes, and the radioactivity corresponding to ^3H cortisol was measured on a Wallac Microbeta.
The inhibition of microsomal 11β-HSD1 was carried out in the same manner.
(In a scintillation proximity assay essentially only radioactivity close to the scintillant gives light.)

Experiment [1] addresses T1, purified 11β-HSD1 (recombinant, expressed in E. coli) (Homo sapiens, UniProt P28845).
T1 construct: made in house; host or cells: E. coli
Kind of experiment: Inhibition of purified 11β-HSD1, Scintillation Proximity Assay. The experiment is classed as biochemical. The settings on record: recombinant enzyme, 3H cortisone, NADPH, room temperature. The protocol:
as §1

For experiment [2], the target named is T2, 11β-HSD1 in whole cells (omental adipocytes) (Homo sapiens, UniProt P28845).
T2 construct: host or cells: omental adipocytes differentiated from preadipocytes
As to the kind of experiment: Inhibition of 11β-HSD1 in whole cells (omental adipocytes), cortisone to cortisol conversion, SPA. The settings on record: 100 nM [3H] cortisone, 37 degrees C. The experiment is classed as cell-based. The protocol:
The inhibition of 11β-HSD1 by compounds of Formula I in whole cells was measured as follows. Omental adipocytes cultured in 96-well plates were purchased from Zen-Bio, Inc. and used at least two weeks after differentiation from precursor preadipocytes started in medium supplemented with adipogenic and lipogenic hormones (human insulin, dexamethasone, isobutylmethylxanthine and PPAR-gamma agonist). The cells were maintained in full adipocyte medium (DMEM/Ham's F-12 (1:1, v/v), HEPES pH 7.4, fetal bovine serum, penicillin, streptomycin and Amphotericin B, supplied by Zen-Bio, Inc.) at 37 degrees C., 5% CO2 and transferred into serum-free, phenol red free medium for overnight incubation. The assay was performed in a total volume of 200 microliters. The cells were pre-incubated with serum-free, phenol red free medium containing 0.1% (v/v) of DMSO and various concentrations of compounds of Formula I at least 1 h before [^3H] cortisone in ethanol (50 Ci/mmol, ARC, Inc.) was added to achieve final concentration of cortisone of 100 nM. The cells were incubated for 3-4 at 37 degrees Centigrade, 5% CO2. Negative controls were incubated without radioactive substrate and received the same amount of [^3H] cortisone at the end of the incubation. Formation of [^3H] cortisol was monitored by analyzing 25 microliters of each supernatant in scintillation proximity assay (SPA). (Solly, K.; Mundt, S. S.; Zokian, H. J.; Ding, G. J.; Hermanowski-Vosatka, A.; Strulovici, B.; Zheng, W. Assay Drug Dev. Technol. 2005, 3, 377-384),

Chain of microsomal 11β-HSD1 (P28845 whole entry): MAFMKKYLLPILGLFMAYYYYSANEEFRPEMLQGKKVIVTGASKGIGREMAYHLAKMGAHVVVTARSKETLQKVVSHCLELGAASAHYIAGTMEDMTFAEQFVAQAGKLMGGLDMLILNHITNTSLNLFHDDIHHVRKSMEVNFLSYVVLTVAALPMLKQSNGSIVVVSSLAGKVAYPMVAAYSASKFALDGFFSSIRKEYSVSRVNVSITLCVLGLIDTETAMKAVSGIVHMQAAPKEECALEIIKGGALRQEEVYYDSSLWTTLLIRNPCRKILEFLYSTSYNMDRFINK
T2 sequence (P28845 whole entry): as above
T1 sequence (P28845 whole entry): as above

`CC(C)(C)[C@H]1CN(C2C3CC4CC(C3)CC2C4)C(=O)O1` (stereo partly drawn) [Example 12, (S)-3-(2-adamantyl)-5-tert-butyloxazolidin-2-one]: the half-inhibitory concentration (IC50) (on microsomal 11β-HSD1; in experiment [1]; in experiment [2]) was below 50 nM throughout.

`CN1C(=O)N(C2C3CC4CC(C3)CC2C4)C[C@@H]1C(C)(C)C` (stereo partly drawn) [Example 28, (S)-1-(2-adamantyl)-4-tert-butyl-3-methylimidazolidin-2-one]: the IC50 (against microsomal 11β-HSD1; in experiment [1]; in experiment [2]) was below 50 nM in each case.

In the case of `O=C1N[C@@H](C2CCCCC2)CN1C1C2CC3CC(C2)CC1C3` (stereo partly drawn) [Example 32, (S)-4-cyclohexyl-1-(2-adamantyl)imidazolidin-2-one], the IC50 (against microsomal 11β-HSD1; in experiment [2]) was below 50 nM throughout.

`CC(C)[C@H]1CN(C2C3CC4CC(C3)CC2C4)C(=O)N1` (stereo partly drawn) [Example 33, (S)-4-isopropyl-1-(2-adamantyl)imidazolidin-2-one]: the half-inhibitory concentration (IC50) (against microsomal 11β-HSD1; in experiment [2]) was below 50 nM throughout.
